tested on: NCI-H358(KRAS^G12C mutation) cells; test: Cell assay of antiproliferative activity (Celltiter-Glo, 5 days) against NCI-H358 cells; format: cell-based; conditions: 5 days incubation
Method: Cell assay of antiproliferative activity of compounds against NCI-H358(KRAS^G12C mutation) and A549(KRAS^G12S mutation) cells.
40 μl phosphate buffer was added to the outer wells of the 384 microplate, and 40 μl cell suspension to be tested was added to the other wells. Then the microplate was incubated in a carbon dioxide incubator overnight.
The compounds to be tested were gradiently diluted, each compound was performed 10 concentration gradients (diluted from 50 μM to 0.003 μM) and added 100 nL to the corresponding wells in the microplate. After addition, 40 μl of phosphate buffer was added to each well in rows A and P and columns 1 and 24, and then the microplate was incubated in a carbon dioxide incubator for 5 days.
20 μL of Promega Celltiter-Glo reagent was added to each well of the microplate, and then the luminescence signal was stabilized by oscillating at room temperature for 10 min. Then PekinElmer Envision multi-label analyzer was used to read.
Finally, GraphPad Prism software was used to calculate the IC50 value of the compound and the fitting curve was drawn.
Anti-proliferative activity of the compounds of the present invention against NCI-H358(KRAS^G12C mutation) and A549(KRAS^G12S mutation) cells were shown in Table 1.

In order of falling IC50:
1. C=CC(=O)N1CCN(c2nc(OCC3(CN(C)C)CC3)nc3c2CC(C)N(c2cccc4cccc(Cl)c24)C3)CC1CC#N (single isomer, unassigned) [Example 29A, 2-(1-acroloyl-4-(7-(8-chloronaphthalen-1-yl)-2-((1-((dimethylamino)methyl)cyclopropyl)methoxyl)-6-methyl-5,6,7,8-tetrahydropyrido [3,4-d]pyrimidin-4-yl)piperazin-2-yl) acetonitrile]  360 nM
2. C=CC(=O)N1CCN(c2nc(OCC3(CN(C)C)CC3)nc3c2CC(C)N(c2cccc4cccc(Cl)c24)C3)CC1CC#N (single isomer, unassigned) [Example 29C, 2-(1-acroloyl-4-(7-(8-chloronaphthalen-1-yl)-2-((1-((dimethylamino)methyl)cyclopropyl)methoxyl)-6-methyl-5,6,7,8-tetrahydropyrido [3,4-d]pyrimidin-4-yl)piperazin-2-yl) acetonitrile]  100 nM
3. C=CC(=O)N1CCN(c2nc(OCC3(CNC)CC3)nc3c2CCN(c2cccc4cccc(Cl)c24)C3)CC1CC#N (stereo not shown) [Example 26, 2-(1-acroloyl-4-(7-(8-chloronaphthalen-1-yl)-2-((1-((methylamino)methyl)cyclopropyl)methoxy)-5,6,7,8-tetrahydropyrido[3,4-d]pyrimidin-4-yl)piperazin-2-yl) acetonitrile]  62 nM
4. C=CC(=O)N1CCN(c2nc(OCC3(CN(C)C)CC3)nc3c2CC(C)N(c2cccc4cccc(Cl)c24)C3)CC1CC#N (single isomer, unassigned) [Example 29B, 2-(1-acroloyl-4-(7-(8-chloronaphthalen-1-yl)-2-((1-((dimethylamino)methyl)cyclopropyl)methoxyl)-6-methyl-5,6,7,8-tetrahydropyrido [3,4-d]pyrimidin-4-yl)piperazin-2-yl) acetonitrile]  53 nM
5. C=CC(=O)N1CCN(c2nc(OCCN(C)C3(C)CCC3)nc3c2CCN(c2cccc4cccc(Cl)c24)C3)CC1CC#N (stereo not shown) [Example 23, 2-(1-acroloyl-4-(7-(8-chloronaphthalen-1-yl)-2-(2-(methyl(1-methylcyclobutyl)amino)ethoxy)-5,6,7,8-tetrahydropyrido[3,4-d]pyrimidin-4-yl)piperazin-2-yl) acetonitrile]  13 nM
6. C=CC(=O)N1CCN(c2nc(OCC3(CN(C)C)CC3)nc3c2CC(C)N(c2cccc4cccc(Cl)c24)C3)CC1CC#N (single isomer, unassigned) [Example 29D, 2-(1-acroloyl-4-(7-(8-chloronaphthalen-1-yl)-2-((1-((dimethylamino)methyl)cyclopropyl)methoxyl)-6-methyl-5,6,7,8-tetrahydropyrido [3,4-d]pyrimidin-4-yl)piperazin-2-yl) acetonitrile]  6 nM

same assay, conditions: Homo sapiens, NCI-H358, 120 h, 5 days incubation

In order of rising IC50:
1. C=C(F)C(=O)N1CCN(c2nc(OCC3(CN(C)C)CC3)nc3c2CCN(c2cccc4ccc(F)c(Cl)c24)C3)C[C@@H]1CC#N [Example 28]  8 nM
2. C=CC(=O)N1CCN(c2nc(OCC3(N(C)C)CC3)nc3c2CCN(c2cccc4cccc(Cl)c24)C3)CC1CC#N (stereo not shown) [Example 30]  41 nM
3. C=C(F)C(=O)N1CCN(c2nc(OCC3(CN(C)C)COC3)nc3c2CCN(c2cccc4cccc(Cl)c24)C3)CC1CC#N (stereo not shown) [Example 25, 2-(4-(7-(8-chloronaphthalen-1-yl)-2-((3-((dimethylamino)methyl)oxetan-3-yl)methoxy)-5,6,7,8-tetrahydropyrido[3,4-d]pyrimidin-4-yl)-1-(2-fluoroacroloyl)piperazin-2-yl) acetonitrile]  59 nM
4. C=CC(=O)N1CCN(c2nc(OCCN(C)C3(COC)CCC3)nc3c2CCN(c2cccc4cccc(Cl)c24)C3)CC1CC#N (stereo not shown) [Example 31, 2-(acroloyl-4-(7-(8-chloronaphthalen-1-yl)-2-(2-((1-(methoxymethyl)cyclobutyl)(methyl)amino)ethoxy)-5,6,7,8-tetrahydropyrido[3,4-d]pyrimidin-4-yl)piperazin-2-yl) acetonitrile]  73 nM

— patent US11459327B1, “Cycloalkyl and hetero-cycloalkyl inhibitors, preparation methods therefor, and use thereof” (Suzhou Zelgen Biopharmaceuticals Co., Ltd., priority 2019, dated 2022)
